From patent publication US20240366558A1, “TREATING LONG COVID-19 WITH UROLITHINS” (Amazentis SA, priority 2021, published 2024)

Legend:
[1] = tested on: human PBMCs; test: RNA-seq transcriptomic analysis / GSEA of PBMCs from healthy elderly supplemented with Urolithin A; assay type: in vivo; conditions: 500 mg/day for 28 days, end of treatment vs baseline, placebo-filtered
Experimental: RNA was extracted from frozen human PBMCs and quality of extraction controlled with Agilent Fragment Analyzer System. RNA-seq library was prepared as strand-specific cDNA library, after the following steps: Purification of poly-A containing mRNA molecules; mRNA fragmentation; Random primed cDNA synthesis (strand-specific); Adapter ligation and adapter specific PCR amplification. RNA-seq run was performed with the NovaSeq6000 using S4 flowcells with 2×150 bp giving at least 30 million read pairs per sample
The RNA-Seq reads were aligned to the reference human transcriptome using Bowtie generating genome/transcriptome alignments. TopHat identifid the potential exon-exon splice junctions of the initial alignment. Then Cufflinks identified and quantified the transcripts from the preprocessed RNA-Seq alignment assembly. After this, Cuffmerge merged the identified transcript pieces to full length transcripts and annotates the transcripts based on the given annotations. Finally, merged transcripts from two or more samples/conditions were compared, using Cuffdiff to determine the differential expression levels at transcript and gene level including a measure of significance between samples/conditions.
Gene set enrichment analysis (GSEA) was conducted using R package clusterProfiler, v. 3.18.068. Enrichments of Gene Ontology (GO) Biological Process (BP) was investigated. All the genes subjected to the DE analysis and that passed the independent filtering of DEseq2 were ranked by shrunk log 2 fold change values and used as input data for the analysis. Ensembl IDs of the genes were converted to Entrez IDs for the analysis using biomaRt, v. 2.46. Minimum and maximum genes et sizes were set to 15 and 500, respectively. In order to adjust for the placebo effect, the GSEA results of Urolithin A at 500 mg were filtered to exclude enriched terms (p-value <0.05) obtained from the GSEA of the Placebo DEGs. Key pathways were visualised as bar plots ranked by Normalized Enrichment score (NES).
RNA-seq transcriptomic analysis was performed in healthy elderly supplemented with either Urolithin A (UA) at 500 mg/day or Placebo for 28 days. Peripheral blood mononuclear cells (PBMCs) were isolated and collected at baseline and at the end of the study. RNA was extracted from these subjects and used to perform RNA-seq and determine biological pathways modulated specifically by Urolithin A, but not Placebo, comparing end-of treatment to baseline

[2] = tested on: Long COVID; test: Patients afflicted with Long COVID administered 500 mg Mitopure (Urolithin A); assay type: in vivo, human; conditions: three Long COVID patients, patient-indicated
Experimental: Three patients afflicted with Long COVID were administered 500 mg Mitopure™ (Urolithin A). Each patient indicated improvement in symptoms including reduced fatigue and improved muscle function.

## O=c1oc2cc(O)ccc2c2ccc(O)cc12 [Urolithin A, urolithin A]
[1]
  Gene Ontology gene set "mitochondrial gene expression": up-regulated
  Gene Ontology gene set "mitochondrial respiratory chain complex assembly": up-regulated
  Gene Ontology gene set "neutrophil activation": down-regulated
  Gene Ontology gene set "oxidative phosphorylation": up-regulated
  Gene Ontology gene set "regulation of response to cytokine stimulus": down-regulated
[2]
  fatigue: reduced
  muscle function: improved
  symptoms: improvement
